Read-outs that look alike come from different tables or passages of the source.

In test [1] the target is Beta5 (purified human constitutive proteasome) (Homo sapiens, UniProt P28074). Description: Determination of Beta5 activity (fluorescence intensity assay, Suc-LLVY-AMC). In kind it is biochemical. How it is done:
Determination of Beta5 Activity:
Measurement of Beta5 inhibition is performed in 384 well format based on fluorescence intensity assay.
(§1) Purified human constitutive proteasome (1.25 nM) and serial diluted compounds in DMSO (range of concentrations from 30 μM to 15 pM) or controls are incubated for 20 minutes or 120 minutes (long incubation) at 25° C. in assay buffer containing 50 mM Tris pH 7.4, 0.03% SDS, 1 mM EDTA and 1% DMSO. The reaction is initiated by the addition of the fluorogenic peptide substrate, Suc-LLVY-AMC (Bachem 1-1395), at a concentration of 40 μM. After 60 minutes of incubation at 37° C., fluorescence intensity is measured at λex=350 nm and λem=450 nm with a fluorescence reader (Perkin Elmer Envision reader or equivalent).
(§2) Unless indicated otherwise the results are obtained after incubation for 20 minutes.

In test [2] the target is LMP7 (purified human immuno proteasome) (Homo sapiens, UniProt P28062). The experiment in a line: Determination of LMP7 activity (fluorescence intensity assay, Suc-LLVY-AMC). In kind it is biochemical. The conditions noted are these: for Selectivity LMP7 vs Beta5: LMP7 versus Beta5, incubation for 20 minutes. The method, then: Biological Activity Determination of LMP7 Activity:
Measurement of LMP7 inhibition is performed in 384 well format based on fluorescence intensity assay.
as §1, with “immuno” for “constitutive”, “(0.25” for “(1.25”
as §2

The mark [3] stands for this setting: incubation for 20 minutes at 25° C., concentrations 30 μM to 15 pM, read-out: Beta5 IC50.
Where [4] appears, read: incubation for 20 minutes at 25° C., concentrations 30 μM to 15 pM, read-out: LMP7 IC50.

Take `O=C(N[C@@H](C[C@@H]1COc2ccccc21)B(O)O)[C@@H]1C[C@H]2CC[C@@H]1O2` [Compound No. 1, [(1R)-2-[(3S)-2,3-dihydro-1-benzofuran-3-yl]-1-{[(1S,2R,4R)-7-oxabicyclo[2.2.1]heptan-2-yl]formamido}ethyl]boronic acid]: the IC50 in test [1] (setting [3]) was 5e-06 to 3e-05 M; in test [2] (setting [4]), less than 5e-08 M. In addition, the “Selectivity LMP7 vs Beta5” value in test [2] is “+++++ (Selectivity ≥700)”.
The like results for `O=C(N[C@@H](Cc1coc2ccccc12)B(O)O)[C@@H]1C[C@H]2CC[C@@H]1O2` [Compound No. 9, [(1R)-2-(1-benzofuran-3-yl)-1-{[(1S,2R,4R)-7-oxabicyclo[2.2.1]heptan-2-yl]formamido}ethyl]boronic acid] were, in that order, 5e-07 to 5e-06 M, less than 5e-08 M and “+++++ (Selectivity ≥700)”.
In the same order, the values of `O=C(N[C@@H](Cc1coc2c(Cl)cccc12)B(O)O)[C@@H]1C[C@H]2CC[C@@H]1O2` [Compound No. 13, [(1R)-2-(7-chloro-1-benzofuran-3-yl)-1-{[(1S,2R,4R)-7-oxabicyclo[2.2.1]heptan-2-yl]formamido}ethyl]boronic acid] are 5e-07 to 5e-06 M, less than 5e-08 M and “+++++ (Selectivity ≥700)”.
The like results for `O=C(N[C@@H](C[C@@H]1COc2ccccc21)B(O)O)[C@H]1C[C@@H]2CC[C@H]1O2` [compound 2, [(1R)-2-[(3S)-2,3-dihydro-1-benzofuran-3-yl]-1-{[(1R,2S,4S)-7-oxabicyclo[2.2.1]heptan-2-yl]formamido}ethyl]boronic acid] were, in that order, 5e-06 to 3e-05 M, 5e-08 to 5e-07 M and “+++ (300 ≤ Selectivity < 500)”.
As for `O=C(N[C@@H](Cc1ccsc1)B(O)O)[C@@H]1C[C@H]2CC[C@@H]1O2` [compound 3, [(1R)-1-{[(1S,2R,4R)-7-oxabicyclo[2.2.1]heptan-2-yl]formamido}-2-(thiophen-3-yl)ethyl]boronic acid], the IC50 in test [1] (setting [3]) was more than 3e-05 M; in test [2] (setting [4]) it was 5e-07 to 5e-06 M.
`O=C(N[C@@H](Cc1coc2ccccc12)B(O)O)[C@H]1C[C@@H]2CC[C@H]1O2` [compound 8, [(1R)-2-(1-benzofuran-3-yl)-1-{[(1R,2S,4S)-7-oxabicyclo[2.2.1]heptan-2-yl]formamido}ethyl]boronic acid]: the IC50 in test [1] (setting [3]) is 5e-06 to 3e-05 M; in test [2] (setting [4]), less than 5e-08 M. Moreover, in test [2], the “Selectivity LMP7 vs Beta5” value is “++++ (500 ≤ Selectivity < 700)”.
The like results for `O=C(N[C@@H](Cc1coc2c(Cl)cccc12)B(O)O)[C@H]1C[C@@H]2CC[C@H]1O2` [compound 12, [(1R)-2-(7-chloro-1-benzofuran-3-yl)-1-{[(1R,2S,4S)-7-oxabicyclo[2.2.1]heptan-2-yl]formamido}ethyl]boronic acid] were, in that order, 5e-06 to 3e-05 M, less than 5e-08 M and “+++++ (Selectivity ≥700)”.
As for `Cc1cccc2c1OC[C@@H]2C[C@H](NC(=O)[C@@H]1C[C@H]2CC[C@@H]1O2)B(O)O` [compound 14, [(1R)-2-[(3R)-7-methyl-2,3-dihydro-1-benzofuran-3-yl]-1-{[(1S,2R,4R)-7-oxabicyclo[2.2.1]heptan-2-yl]formamido}ethyl]boronic acid], the IC50 in test [1] (setting [3]) is more than 3e-05 M; in test [2] (setting [4]) it was 5e-07 to 5e-06 M.
`Cc1cccc2c1OC[C@H]2C[C@H](NC(=O)[C@@H]1C[C@H]2CC[C@@H]1O2)B(O)O` [compound 15, [(1R)-2-[(3S)-7-methyl-2,3-dihydro-1-benzofuran-3-yl]-1-{[(1S,2R,4R)-7-oxabicyclo[2.2.1]heptan-2-yl]formamido}ethyl]boronic acid]: the IC50 is 5e-06 to 3e-05 M in test [1] (setting [3]) and less than 5e-08 M in test [2] (setting [4]). Moreover, the “Selectivity LMP7 vs Beta5” value in test [2] is “+++++ (Selectivity ≥700)”.
The like results for `O=C(N[C@@H](C[C@@H]1COc2ccccc21)B(O)O)[C@]12CC[C@H](O1)c1ccccc12` [compound 16, [(1R)-2-[(3S)-2,3-dihydro-1-benzofuran-3-yl]-1-{[(1R,8S)-11-oxatricyclo[6.2.1.0^2,7]undeca-2(7),3,5-trien-1-yl]formamido}ethyl]boronic acid] were, in that order, 5e-06 to 3e-05 M, less than 5e-08 M and “+++++ (Selectivity ≥700)”.
`O=C(N[C@@H](Cc1coc2ccccc12)B(O)O)[C@H]1C2C(=O)N(C3CC3)C[C@]23C=C[C@H]1O3` (stereo partly drawn) [compound 17, [(1R)-2-(1-benzofuran-3-yl)-1-{[(1S,6S,7R)-3-cyclopropyl-4-oxo-10-oxa-3-azatricyclo[5.2.1.0^1,5]dec-8-en-6-yl]formamido}ethyl]boronic acid]: the results for the IC50 in test [1] (setting [3]) and in test [2] (setting [4]) were 5e-06 to 3e-05 M and less than 5e-08 M, respectively. The “Selectivity LMP7 vs Beta5” value in test [2] is listed as “++ (100 ≤ Selectivity < 300)”.
In the same order, the values of `O=C(N[C@@H](C[C@@H]1COc2ccccc21)B(O)O)[C@@]12CC[C@@H](O1)c1ccccc12` [compound 18, [(1R)-2-[(3S)-2,3-dihydro-1-benzofuran-3-yl]-1-{[(1S,8R)-11-oxatricyclo[6.2.1.0^2,7]undeca-2(7),3,5-trien-1-yl]formamido}ethyl]boronic acid] are 5e-06 to 3e-05 M, less than 5e-08 M and “+++++ (Selectivity ≥700)”.
The like results for `Cc1cccc2c(C[C@H](NC(=O)[C@]34CC[C@H](O3)c3ccccc34)B(O)O)coc12` [compound 19, [(1R)-2-(7-methyl-1-benzofuran-3-yl)-1-{[(1R,8S)-11-oxatricyclo[6.2.1.0^2,7]undeca-2,4,6-trien-1-yl]formamido}ethyl]boronic acid] were, in that order, 5e-06 to 3e-05 M, less than 5e-08 M and “+++++ (Selectivity ≥700)”.
In the case of `Cc1cccc2c(C[C@H](NC(=O)[C@@]34CC[C@@H](O3)c3ccccc34)B(O)O)coc12` [compound 20, [(1R)-2-(7-methyl-1-benzofuran-3-yl)-1-{[(1S,8R)-11-oxatricyclo[6.2.1.0^2,7]undeca-2,4,6-trien-1-yl]formamido}ethyl]boronic acid], the IC50 was 5e-06 to 3e-05 M in test [1] (setting [3]) and less than 5e-08 M in test [2] (setting [4]). The “Selectivity LMP7 vs Beta5” value in test [2] is listed as “++++ (500 ≤ Selectivity < 700)”.
The like results for `C[C@]12CC[C@](C(=O)N[C@@H](C[C@@H]3COc4ccccc43)B(O)O)(O1)c1ccccc12` [compound 21, [(1R)-2-[(3S)-2,3-dihydro-1-benzofuran-3-yl]-1-{[(1S,8R)-8-methyl-11-oxatricyclo[6.2.1.0^2,7]undeca-2,4,6-trien-1-yl]formamido}ethyl]boronic acid] were, in that order, 5e-06 to 3e-05 M, less than 5e-08 M and “+++++ (Selectivity ≥700)”.
In the same order, the values of `O=C(N[C@@H](Cc1coc2ccccc12)B(O)O)C1C[C@H]2O[C@@H]1c1ccccc12` (stereo partly drawn) [compound 22, [(1R)-2-(1-benzofuran-3-yl)-1-{[(1R,8S)-11-oxatricyclo[6.2.1.0^2,7]undeca-2(7),3,5-trien-9-yl]formamido}ethyl]boronic acid] are 5e-06 to 3e-05 M, less than 5e-08 M and “++ (100 ≤ Selectivity < 300)”.
`C[C@@]12CC[C@@](C(=O)N[C@@H](C[C@@H]3COc4ccccc43)B(O)O)(O1)c1ccccc12` [compound 23, [(1R)-2-[(3S)-2,3-dihydro-1-benzofuran-3-yl]-1-{[(1R,8S)-8-methyl-11-oxatricyclo[6.2.1.0^2,7]undeca-2,4,6-trien-1-yl]formamido}ethyl]boronic acid]: the results for the IC50 in test [1] (setting [3]) and in test [2] (setting [4]) were 5e-06 to 3e-05 M and less than 5e-08 M, respectively. Moreover, the “Selectivity LMP7 vs Beta5” value in test [2] is given as “+++++ (Selectivity ≥700)”.
The like results for `O=C(N[C@@H](Cc1coc2ccccc12)B(O)O)C1C[C@@H]2O[C@H]1c1ccccc12` (stereo partly drawn) [compound 24, [(1R)-2-(1-benzofuran-3-yl)-1-{[(1S,8R)-11-oxatricyclo[6.2.1.0^2,7]undeca-2(7),3,5-trien-9-yl]formamido}ethyl]boronic acid] were, in that order, 5e-08 to 5e-07 M, less than 5e-08 M and “+ (Selectivity <100)”.
Regarding `Cc1ccc(C[C@H](NC(=O)[C@@H]2C[C@H]3CC[C@@H]2O3)B(O)O)c(C)c1` [compound 25, [(1R)-2-(2,4-dimethylphenyl)-1-{[(1S,2R,4R)-7-oxabicyclo[2.2.1]heptan-2-yl]formamido}ethyl]boronic acid], the IC50 in test [1] (setting [3]) lay in the range of 5e-06 to 3e-05 M; in test [2] (setting [4]), 5e-08 to 5e-07 M. For the same compound, the “Selectivity LMP7 vs Beta5” value in test [2] is given as “++ (100 ≤ Selectivity < 300)”.
On to `O=C(N[C@@H](CC1CCCCC1)B(O)O)[C@@H]1C[C@H]2CC[C@@H]1O2` [compound 26, [(1R)-2-cyclohexyl-1-{[(1S,2R,4R)-7-oxabicyclo[2.2.1]heptan-2-yl]formamido}ethyl]boronic acid], for which the IC50 was more than 3e-05 M in test [1] (long incubation: 120 min at 25° C., read-out: Beta5 IC50 (M) (long)) and 5e-07 to 5e-06 M in test [2] (long incubation: 120 min at 25° C., read-out: LMP7 IC50 (M) (long)).

In general, IC50 refers to the concentration that gives 50% inhibition.
